Test results published in patent US20240041877A1, “DOSAGE REGIME AND METHOD FOR TREATING PULMONARY ARTERIAL HYPERTENSION” (Altavant Sciences GmbH, priority 2019, published 2024).

Experiment: Part 2 (MAD): plasma pharmacokinetics after BID oral KAR5585 for 14 days (incl. accumulation ratios and dose proportionality)
Conditions: for AUC0-12, Day 1 / AUC0-24, Day 14: mean
[1] = 100 mg KAR5585 BID, fasted, Part 2 Cohort 1
[2] = 100 mg KAR5585 BID, fed, Cohort 2
[3] = 100 mg KAR5585 BID, fed, Part 2 Cohort 2
[4] = 100 mg/dose Fasted Cohort 1, Day 1 AM, Geo. Mean
[5] = 100 mg/dose Fasted Cohort 1, Day 1 AM, Mean
[6] = 100 mg/dose Fasted Cohort 1, Day 14, Geo. Mean
[7] = 100 mg/dose Fasted Cohort 1, Day 14, Mean
[8] = 100 mg/dose Fed Cohort 2, Day 1 AM, Geo. Mean
[9] = 100 mg/dose Fed Cohort 2, Day 1 AM, Mean
[10] = 100 mg/dose Fed Cohort 2, Day 1 PM, Geo. Mean
[11] = 100 mg/dose Fed Cohort 2, Day 1 PM, Mean
[12] = 100 mg/dose Fed Cohort 2, Day 7 AM, Geo Mean
[13] = 100 mg/dose Fed Cohort 2, Day 7 AM, Mean
[14] = 100 mg/dose Fed Cohort 2, Day 7 PM, Geo Mean
[15] = 100 mg/dose Fed Cohort 2, Day 7 PM, Mean
[16] = 100 mg/dose Fed Cohort 2, Day 14, Geo Mean
[17] = 100 mg/dose Fed Cohort 2, Day 14, Mean
[18] = 200 mg/dose Fed Cohort 3, Day 1 AM, Geo Mean
[19] = 200 mg/dose Fed Cohort 3, Day 1 AM, Mean
[20] = 200 mg/dose Fed Cohort 3, Day 1 PM, Geo. Mean

From the text: Food effect was to be evaluated in Part 1, Period 2.
Pharmacokinetic data were to be summarized descriptively.

SMILES: CCOC(=O)[C@@H]1CC2(CCN(c3cc(O[C@H](c4ccc(Cl)cc4-c4ccccc4)C(F)(F)F)nc(N)n3)CC2)CN1 [KAR5585, (S)-ethyl 8-(2-amino-6-((R)-1-(5-chloro-[1,1′-biphenyl]-2-yl)-2,2,2-trifluoroethoxy)pyrimidin-4-yl)-2,8-diazaspiro[4.5]decane-3-carboxylate]
- half-life, Day 14 (100 mg KAR5585 BID, fasted): 2.49 h
- time peak plasma concentrations were reached, Day 1 (100 mg KAR5585 BID, fasted, Cohort 1): 0.75 to 2.0 h
- AUC0-12, Day 1 [1]: 62.8 ng·h/mL
- AUC0-24, Day 14 [1]: 99.8 ng·h/mL
- Mean CL/F, Day 1 (100 mg KAR5585 BID, fed): 2100 L/h
- Mean steady-state CL/F, Day 14 (100 mg KAR5585 BID, fed): 880 L/h
- mean apparent elimination half-life, Day 14 (100 mg KAR5585 BID, fed): 2.73 h
- Cmax (peak mean concentration), Day 1 [2]: 18.4 ng/mL
- Cmax (peak mean concentration), Day 14 [2]: 30 ng/mL
- mean Cmax plasma concentrations, range on all dosing days [2]: 18.4 to 44.1 ng/mL
- median time to peak plasma concentrations, range on all dosing days and times [2]: 0.75 to 4 h
- AUC0-12, Day 1 [3]: 55.5 ng·h/mL
- AUC0-24, Day 14 [3]: 122 ng·h/mL
- C12 [4]: BLQ
- CL/F [4]: 1850 L/h
- Cmax/D [4]: 0.158 (ng/mL)/mg
- AUC0-12 [5]: 62.8 ng·h/mL
- AUC0-∞ [5]: 71.1 ng·h/mL
- C12 [5]: BLQ
- CL/F [5]: 2380 L/h
- Cmax/D [5]: 0.167 (ng/mL)/mg
- t1/2 [5]: 2.23 h
- AUC0-12 [6]: 78.2 ng·h/mL
- AUC0-24 [6]: 82.3 ng·h/mL
- AUC0-24/D [6]: 0.823 (hr*ng/mL)/mg
- AUC0-∞ [6]: 85 ng·h/mL
- C24 [6]: BLQ
- CL/F [6]: 1280 L/h
- Cmax [6]: 20.1 ng/mL
- Cmax/D [6]: 0.201 (ng/mL)/mg
- t1/2 [6]: 2.36 h
- AUC0-12 [7]: 92.4 ng·h/mL
- AUC0-24 [7]: 99.8 ng·h/mL
- AUC0-24/D [7]: 0.998 (hr*ng/mL)/mg
- AUC0-∞ [7]: 105 ng·h/mL
- C24 [7]: BLQ
- CL/F [7]: 1450 L/h
- Cmax/D [7]: 0.213 (ng/mL)/mg
- t1/2 [7]: 2.49 h
- AUC0-12 [8]: 51.2 ng·h/mL
- AUC0-∞ [8]: 51.7 ng·h/mL
- C12 [8]: BLQ
- CL/F [8]: 1940 L/h
- Cmax [8]: 17.7 ng/mL
- Cmax/D [8]: 0.177 (ng/mL)/mg
- t1/2 [8]: 1.37 h
- AUC0-12 [9]: 55.5 ng·h/mL
- AUC0-∞ [9]: 55.9 ng·h/mL
- C12 [9]: BLQ
- CL/F [9]: 2100 L/h
- Cmax [9]: 18.4 ng/mL
- Cmax/D [9]: 0.184 (ng/mL)/mg
- t1/2 [9]: 1.42 h
- AUC0-12 [10]: 136 ng·h/mL
- AUC0-24 [10]: 214 ng·h/mL
- AUC0-24/D [10]: 1.07 (hr*ng/mL)/mg
- AUC0-∞ [10]: 152 ng·h/mL
- CL/F [10]: 658 L/h
- Cmax [10]: 39.8 ng/mL
- Cmax/D [10]: 0.398 (ng/mL)/mg
- t1/2 [10]: 1.82 h
- AUC0-12 [11]: 143 ng·h/mL
- AUC0-24 [11]: 226 ng·h/mL
- AUC0-24/D [11]: 1.13 (hr*ng/mL)/mg
- AUC0-∞ [11]: 156 ng·h/mL
- CL/F [11]: 675 L/h
- Cmax [11]: 44.1 ng/mL
- Cmax/D [11]: 0.441 (ng/mL)/mg
- t1/2 [11]: 1.87 h
- AUC0-12 [12]: 127 ng·h/mL
- AUC0-∞ [12]: 137 ng·h/mL
- C12 [12]: BLQ
- CL/F [12]: 788 L/h
- Cmax [12]: 29.8 ng/mL
- Cmax/D [12]: 0.298 (ng/mL)/mg
- t1/2 [12]: 2.82 h
- AUC0-12 [13]: 129 ng·h/mL
- AUC0-∞ [13]: 139 ng·h/mL
- C12 [13]: BLQ
- CL/F [13]: 800 L/h
- Cmax [13]: 31.3 ng/mL
- Cmax/D [13]: 0.313 (ng/mL)/mg
- t1/2 [13]: 2.86 h
- AUC0-12 [14]: 142 ng·h/mL
- AUC0-24 [14]: 278 ng·h/mL
- AUC0-24/D [14]: 1.39 (hr*ng/mL)/mg
- AUC0-∞ [14]: 168 ng·h/mL
- C12 [14]: 6.27 ng/mL
- CL/F [14]: 699 L/h
- Cmax [14]: 25.8 ng/mL
- Cmax/D [14]: 0.258 (ng/mL)/mg
- t1/2 [14]: 3.52 h
- AUC0-12 [15]: 145 ng·h/mL
- AUC0-24 [15]: 282 ng·h/mL
- AUC0-24/D [15]: 1.41 (hr*ng/mL)/mg
- AUC0-∞ [15]: 173 ng·h/mL
- CL/F [15]: 717 L/h
- Cmax/D [15]: 0.284 (ng/mL)/mg
- t1/2 [15]: 3.80 h
- AUC0-12 [16]: 114 ng·h/mL
- AUC0-24 [16]: 121 ng·h/mL
- AUC0-24/D [16]: 1.21 (hr*ng/mL)/mg
- AUC0-∞ [16]: 121 ng·h/mL
- C12 [16]: BLQ
- C24 [16]: BLQ
- CL/F [16]: 874 L/h
- Cmax [16]: 28.5 ng/mL
- Cmax/D [16]: 0.285 (ng/mL)/mg
- t1/2 [16]: 2.64 h
- AUC0-12 [17]: 115 ng·h/mL
- AUC0-24 [17]: 122 ng·h/mL
- AUC0-24/D [17]: 1.22 (hr*ng/mL)/mg
- AUC0-∞ [17]: 122 ng·h/mL
- C12 [17]: BLQ
- C24 [17]: BLQ
- CL/F [17]: 880 L/h
- Cmax [17]: 30.0 ng/mL
- Cmax/D [17]: 0.300 (ng/mL)/mg
- t1/2 [17]: 2.73 h
- Mean CL/F, Day 1 (200 mg KAR5585 BID, fed): 830 L/h
- Mean steady-state CL/F, Day 14 (200 mg KAR5585 BID, fed): 1200 L/h
- mean Cmax plasma concentrations, range on all dosing days (200 mg KAR5585 BID, fed, Cohort 3): 42.6 to 90.9 ng/mL
- AUC0-12 [18]: 243 ng·h/mL
- AUC0-∞ [18]: 258 ng·h/mL
- C12 [18]: 5.60 ng/mL
- CL/F [18]: 774 L/h
- Cmax [18]: 80.7 ng/mL
- Cmax/D [18]: 0.403 (ng/mL)/mg
- t1/2 [18]: 2.81 h
- AUC0-12 [19]: 257 ng·h/mL
- AUC0-∞ [19]: 275 ng·h/mL
- C12 [19]: 5.61 ng/mL
- CL/F [19]: 830 L/h
- Cmax [19]: 87.8 ng/mL
- Cmax/D [19]: 0.439 (ng/mL)/mg
- t1/2 [19]: 2.91 h
- AUC0-12 [20]: 333 ng·h/mL
- AUC0-24 [20]: 583 ng·h/mL
- AUC0-24/D [20]: 1.46 (hr*ng/mL)/mg
